Experimental data published in patent US20260256792A1, “TREATMENT OF CHRONIC SPONTANEOUS URTICARIA BY ADMINISTERING (R)-2-[3-[4-AMINO-3-(2-FLUORO-4-PHENOXY-PHENYL)PYRAZOLO[3,4-D]PYRIMIDIN-1-YL]PIPERIDINE-1-CARBONYL]-4-METHYL-4-[4-(OXETAN-3-YL)PIPERAZIN-1-YL]PENT-2-ENENITRILE” (priority 2023, published 2026).

Test system: angioedema in CSU patients
Assay: Phase 2 CSU study: angioedema activity score over 7 days (AAS7)
Assay type: in vivo, human
Conditions: 400 mg BID; for AAS7 % Change difference for rilzabrutinib vs. placebo LS Mean (95% CI) / AAS7 % Change from baseline LS Mean (SE) / AAS7 Change difference for rilzabrutinib vs. placebo LS Mean (95% CI) / AAS7 Change from baseline LS Mean (SE) / AAS7 Post-baseline Mean (SD) / AAS7 = 0, Non-responder n (%) / AAS7 = 0, OR (95% CI) for rilzabrutinib vs. placebo / AAS7 = 0, RRD (%) for rilzabrutinib vs. placebo (95% CI) / Participants with AAS7 = 0, Responder n (%): angioedema at baseline; for Non-responder n (%), AAS7 = 0 / RRD (%) for rilzabrutinib vs. placebo (95% CI), AAS7 = 0 / Responder n (%), AAS7 = 0 / OR (95% CI) for rilzabrutinib vs. placebo, AAS7 = 0: outlier removed
Text: The study comprises a 12 week, randomized, double-blind, placebo-controlled, multi-center, dose-ranging efficacy and safety phase, followed by a 40 week open label extension (OLE) phase (see FIG. 1). The study consists of three phases and an optional OLE phase. […] The weekly angioedema activity score (AAS7) was proposed as a tertiary endpoint. […] Patients were to complete the AAS using the e-diary. The e-diary was to be used once daily on the same time of each day recording of participant's answers to the angioedema activity score over 7 days (AAS7) questionnaire.

CC(C)(C=C(C#N)C(=O)N1CCC[C@@H](n2nc(-c3ccc(Oc4ccccc4)cc3F)c3c(N)ncnc32)C1)N1CCN(C2COC2)CC1 [rilzabrutinib, (R)-2-[3-[4-amino-3-(2-fluoro-4-phenoxy-phenyl)pyrazolo[3,4-d]pyrimidin-1-yl]piperidine-1-carbonyl]-4-methyl-4-[4-(oxetan-3-yl)piperazin-1-yl]pent-2-enenitrile]
AAS7 % Change difference for rilzabrutinib vs. placebo LS Mean (95% CI) (Week 1, ITT): −40.37 (−70.92, −9.83) % | AAS7 % Change from baseline LS Mean (SE) (Week 1, ITT): −60.34 (9.85) % | AAS7 Change difference for rilzabrutinib vs. placebo LS Mean (95% CI) (Week 1, ITT): −9.84 (−22.84, 3.16) | AAS7 Change from baseline LS Mean (SE) (Week 1, ITT): −24.34 (4.19) | AAS7 Post-baseline Mean (SD) (Week 1, ITT): 23.35 (30.86) | Non-responder n (%), AAS7 = 0 (Week 1, omalizumab-naïve): 16 (45.7) n (%) | RRD (%) for rilzabrutinib vs. placebo (95% CI), AAS7 = 0 (Week 1, omalizumab-naïve): 23.4 % | Responder n (%), AAS7 = 0 (Week 1, omalizumab-naïve): 19 (54.3) n (%) | AAS7 % Change difference for rilzabrutinib vs. placebo LS Mean (95% CI) (Week 1, omalizumab-naïve): −42.17 (−75.41, −8.93) % | AAS7 = 0, Non-responder n (%) (Week 1, omalizumab-naïve): 15 (57.7) n (%) | AAS7 = 0, OR (95% CI) for rilzabrutinib vs. placebo (Week 1, omalizumab-naïve): 20.850 | AAS7 = 0, RRD (%) for rilzabrutinib vs. placebo (95% CI) (Week 1, omalizumab-naïve): 35.1 % | AAS7 Change difference for rilzabrutinib vs. placebo LS Mean (95% CI) (Week 1, omalizumab-naïve): −9.69 (−23.74, 4.37) | AAS7 Change from baseline LS Mean (SE) (Week 1, omalizumab-naïve): −23.46 (4.42) | AAS7 Post-baseline Mean (SD) (Week 1, omalizumab-naïve): 25.15 (31.33) | Participants with AAS7 = 0, Responder n (%) (Week 1, omalizumab-naïve): 11 (42.3) n (%) | AAS7 % Change difference for rilzabrutinib vs. placebo LS Mean (95% CI) (Week 2, ITT): −8.15 (−40.12, 23.82) % | AAS7 % Change from baseline LS Mean (SE) (Week 2, ITT): −49.52 (12.60) % | AAS7 Change difference for rilzabrutinib vs. placebo LS Mean (95% CI) (Week 2, ITT): −5.96 (−17.22, 5.30) | AAS7 Change from baseline LS Mean (SE) (Week 2, ITT): −26.86 (4.43) | AAS7 Post-baseline Mean (SD) (Week 2, ITT): 22.75 (28.74) | Non-responder n (%), AAS7 = 0 (Week 2, omalizumab-naïve): 18 (51.4) n (%) | OR (95% CI) for rilzabrutinib vs. placebo, AAS7 = 0 (Week 2, omalizumab-naïve): 1.366 | RRD (%) for rilzabrutinib vs. placebo (95% CI), AAS7 = 0 (Week 2, omalizumab-naïve): 8.2 % | Responder n (%), AAS7 = 0 (Week 2, omalizumab-naïve): 17 (48.6) n (%) | AAS7 % Change difference for rilzabrutinib vs. placebo LS Mean (95% CI) (Week 2, omalizumab-naïve): −9.47 (−44.02, 25.08) % | AAS7 % Change from baseline LS Mean (SE) (Week 2, omalizumab-naïve): −46.69 (13.31) % | AAS7 = 0, Non-responder n (%) (Week 2, omalizumab-naïve): 17 (65.4) n (%) | AAS7 = 0, OR (95% CI) for rilzabrutinib vs. placebo (Week 2, omalizumab-naïve): 2.012 | AAS7 = 0, RRD (%) for rilzabrutinib vs. placebo (95% CI) (Week 2, omalizumab-naïve): 14.6 % | AAS7 Post-baseline Mean (SD) (Week 2, omalizumab-naïve): 24.57 (29.12) | Participants with AAS7 = 0, Responder n (%) (Week 2, omalizumab-naïve): 9 (34.6) n (%) | AAS7 % Change difference for rilzabrutinib vs. placebo LS Mean (95% CI) (Week 3, ITT): −7.33 (−47.50, 32.83) % | AAS7 % Change from baseline LS Mean (SE) (Week 3, ITT): −55.85 (15.71) % | AAS7 Change difference for rilzabrutinib vs. placebo LS Mean (95% CI) (Week 3, ITT): −11.42 (−22.95, 0.12) | AAS7 Change from baseline LS Mean (SE) (Week 3, ITT): −35.57 (4.51) | AAS7 Post-baseline Mean (SD) (Week 3, ITT): 14.81 (20.54) | Non-responder n (%), AAS7 = 0 (Week 3, omalizumab-naïve): 15 (42.9) n (%) | OR (95% CI) for rilzabrutinib vs. placebo, AAS7 = 0 (Week 3, omalizumab-naïve): 2.357 | RRD (%) for rilzabrutinib vs. placebo (95% CI), AAS7 = 0 (Week 3, omalizumab-naïve): 21.6 % | Responder n (%), AAS7 = 0 (Week 3, omalizumab-naïve): 20 (57.1) n (%) | AAS7 % Change difference for rilzabrutinib vs. placebo LS Mean (95% CI) (Week 3, omalizumab-naïve): −5.01 (−48.85, 38.83) % | AAS7 % Change from baseline LS Mean (SE) (Week 3, omalizumab-naïve): −52.68 (16.72) % | AAS7 = 0, Non-responder n (%) (Week 3, omalizumab-naïve): 15 (57.7) n (%) | AAS7 = 0, OR (95% CI) for rilzabrutinib vs. placebo (Week 3, omalizumab-naïve): 2.703 | AAS7 = 0, RRD (%) for rilzabrutinib vs. placebo (95% CI) (Week 3, omalizumab-naïve): 20.8 % | AAS7 Post-baseline Mean (SD) (Week 3, omalizumab-naïve): 15.95 (20.90) | Participants with AAS7 = 0, Responder n (%) (Week 3, omalizumab-naïve): 11 (42.3) n (%) | AAS7 % Change from baseline LS Mean (SE) (Week 4, ITT): −60.60 (13.93) % | AAS7 Change difference for rilzabrutinib vs. placebo LS Mean (95% CI) (Week 4, ITT): −12.73 (−23.88, −1.58) | AAS7 Change from baseline LS Mean (SE) (Week 4, ITT): −35.34 (4.34) | AAS7 Post-baseline Mean (SD) (Week 4, ITT): 13.70 (17.64) | Non-responder n (%), AAS7 = 0 (Week 4, omalizumab-naïve): 17 (48.6) n (%) | OR (95% CI) for rilzabrutinib vs. placebo, AAS7 = 0 (Week 4, omalizumab-naïve): 1.361 | RRD (%) for rilzabrutinib vs. placebo (95% CI), AAS7 = 0 (Week 4, omalizumab-naïve): 7.4 % | Responder n (%), AAS7 = 0 (Week 4, omalizumab-naïve): 18 (51.4) n (%) | AAS7 % Change difference for rilzabrutinib vs. placebo LS Mean (95% CI) (Week 4, omalizumab-naïve): −28.19 (−67.14, 10.77) % | AAS7 % Change from baseline LS Mean (SE) (Week 4, omalizumab-naïve): −58.12 (14.75) % | AAS7 = 0, Non-responder n (%) (Week 4, omalizumab-naïve): 15 (57.7) n (%)
